The values below come from patent US8158621B2, “Methods of treating or preventing autoimmune diseases with 2,4-pyrimidinediamine compounds” (Rigel Pharmaceuticals, Inc., priority 2002, dated 2012).

Structures are written as SMILES.

One test has as its system Human Jurkat T-cells (clone N). Nature of the test: Jurkat T-cell activation (anti-TCR, CD69 upregulation). It counts as cell-based.
Conditions: not given
A digest of the protocol: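 Jurkat cells in RPMI + 5% FBS preincubated with compound 1 h at 37 °C, then stimulated with anti-TCR C305 at 500 ng/ml for 20 h. CD69 surface expression stained with anti-CD69-APC and read by flow cytometry; IC50 versus solvent-only control.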
As usually defined, the IC50 is the concentration that gives 50% inhibition. The low end stands for inhibition by little substance, the high end for a need for much substance. In turn, `CCOC(=O)COc1ccc(Nc2nc(Cl)c(Cl)c(Nc3ccc(OCC(=O)OCC)cc3)n2)cc1` [Compound R926569] showed a 50% inhibitory concentration (IC50) greater than 10 µM.

Regarding `CC(C)(C)c1ccc(Nc2nc(Nc3cccc(OCC(=O)O)c3)ncc2F)cc1` [Compound R926726], the IC50 is greater than 10 µM.

Molecule `CC(=O)Nc1cccc(N(C(C)=O)c2nc(N(C(C)=O)c3cccc(N(C(C)=O)C(C)=O)c3)ncc2F)c1` [Compound R950246] came in with a half-maximal inhibitory concentration (IC50) greater than 10 µM.

In the case of `CNC(=O)COc1cccc(Nc2ncc(F)c(Nc3ccc4c(c3)C=CCC4)n2)c1` [Compound R926944], the half-inhibitory concentration (IC50) was 3.43 µM.

As for `O=C(c1cc2cc(Nc3ncc(F)c(Nc4ccc5oc(C(=O)N6CCOCC6)cc5c4)n3)ccc2o1)N1CCOCC1` [Compound R950172], the concentration for half-maximal inhibition (IC50) was 23.1 µM.

`COc1cc(C(=O)NS(=O)(=O)c2ccccc2C)ccc1Cn1ncc2ccc(Nc3ncc(F)c(Nc4ccc(OC(C)C)cc4)n3)cc21` [Compound R935322] displayed an IC50 greater than 10 µM.

The molecule `CNC(=O)COc1cccc(Nc2ncc(F)c(Nc3ccc4c(c3)N(C)C(=O)CO4)n2)c1` [Compound R909260] returned an IC50 of 3.33 µM.

Consider `CNC(=O)COc1cccc(Nc2ncc(F)c(Nc3ccc(OC)c(CN4CCOCC4)c3)n2)c1` [Compound R940314], for which the concentration for half-maximal inhibition (IC50) worked out at 7.03 µM.

Molecule `Oc1cccc(Nc2nc(Nc3ccc(OCCN4CCOCC4)cc3)ncc2F)c1` [Compound R926699] gave an IC50 of 1.86 µM.

As to `N#Cc1cnc(Nc2cccc(O)c2)nc1Nc1ccc(OCC(=O)NCC2CC2)cc1` [Compound R925845], the IC50 turned out to be 6.97 µM.

As for `CCOC1CCOc2ccc(Nc3nc(Nc4cccc(OCC(=O)NC)c4)ncc3F)cc21` (stereo not drawn) [Compound R950296], the IC50 was 1.95 µM.

With `Cn1ncc2cc(Nc3nc(Nc4cccc(O)c4)ncc3F)ccc21` [Compound R935204], the IC50 turned out to be 3.87 µM.

As to `O=C(CNc1cccc(Nc2ncc(F)c(Nc3cccc(NCCO)c3)n2)c1)N1CCNCC1` [Compound R950241], the IC50 came out at 5.19 µM.

`CCOC(=O)COc1cccc(Nc2ncc(F)c(Nc3ccc4c(c3)C(OC)CCO4)n2)c1` (stereo not drawn) [Compound R950294] yielded an IC50 of 9.79 µM.

Take `CNC(=O)COc1cccc(Nc2ncc(F)c(Nc3ccc4c(c3)OCC(=O)N4)n2)c1` [Compound R908700]: the IC50 was 13.7 µM.

For `CNC(=O)CCn1ncc2cc(Nc3ncc(F)c(Nc4ccc(OC(C)C)cc4)n3)ccc21` [Compound R935310], the half-maximal inhibitory concentration (IC50) is 0.88 µM.

`CNC(=O)COc1cccc(Nc2ncc(F)c(Nc3cccc(C(C)C)c3)n2)c1` [Compound R940288] had an IC50 of 3.48 µM.

In turn, `CCOC(=O)C(C)(C)Oc1cccc(Nc2ncc(F)c(Nc3cccc(O)c3)n2)c1` [Compound R926906] gave an IC50 greater than 10 µM.

`OCCCn1ncc2cc(Nc3ncc(F)c(Nc4cccc(O)c4)n3)ccc21` [Compound R935304]: the half-inhibitory concentration (IC50) was determined as 0.497 µM.

`CCOC(=O)CCn1ncc2ccc(Nc3ncc(F)c(Nc4ccc5c(c4)OCCO5)n3)cc21` [Compound R935286] yielded an IC50 of 2.5 µM.

The molecule `Cn1nnc(COc2ccc(Nc3nc(Nc4ccc(OCc5nnnn5C)cc4)ncc3F)cc2)n1` [Compound R945047] had an IC50 of 3.21 µM.

Regarding `O=C(O)COc1cccc(Nc2ncc(F)c(Nc3ccc4c(c3)OCCO4)n2)c1` [Compound R926483], the IC50 was greater than 10 µM.

`CCOc1ccc(Nc2nc(Nc3cccc(OCC(=O)NC)c3)ncc2F)cc1` [Compound R926827] had an IC50 of 2.14 µM.

For `Cc1noc(COc2ccc(Nc3ncc(F)c(Nc4cccc(O)c4)n3)cc2)n1` [Compound R935141], the half-maximal inhibitory concentration (IC50) was greater than 10 µM.

The molecule `CNC(=O)COc1cccc(Nc2ncc(F)c(Nc3ccc(-n4cnc(Cl)c4Cl)cc3)n2)c1` [Compound R926812] came in with an IC50 of 6.76 µM.

`O=C(CNc1cccc(Nc2ncc(F)c(Nc3ccc4c(c3)OCCO4)n2)c1)NCCN1CCOCC1` [Compound R950200]: it took 2.26 µM to reach half-maximal inhibition (IC50).

`CCOC(=O)COc1cccc(Nc2nc(Nc3cccc(C(C)(C)C)c3)ncc2F)c1` [Compound R940266] came in with an IC50 greater than 10 µM.

The molecule `CNCCNC(=O)c1cc2cc(Nc3ncc(F)c(Nc4ccc5oc(C(=O)NCCNC)cc5c4)n3)ccc2o1` [Compound R950170] came in with a concentration for half-maximal inhibition (IC50) greater than 10 µM.

In the case of `O=[N+]([O-])c1cccc(Nc2nc(Nc3ccc4c(c3)NCCO4)ncc2F)c1` [Compound R950253], the concentration for half-maximal inhibition (IC50) was 10.5 µM.

For the molecule `COc1ccc(Nc2ncc(F)c(Nc3ccc(OC)c(-c4ccccc4)c3)n2)cc1-c1ccccc1` [Compound R926399], the half-maximal inhibitory concentration (IC50) is greater than 10 µM.

The molecule `COC(=O)Cn1ncc2cc(Nc3nc(Nc4ccc(OC(C)C)cc4)ncc3F)ccc21` [Compound R935242] registered an IC50 greater than 10 µM.

Consider `CNC(=O)CCn1ncc2cc(Nc3ncc(F)c(Nc4ccc5c(c4)OCCO5)n3)ccc21` [Compound R935309], for which inhibition was half-maximal at 0.779 µM (IC50).

As to `COC(=O)COc1ccc(Nc2ncc(F)c(Nc3ccc(OCC(N)=O)cc3)n2)cc1` [Compound R945052], the IC50 is greater than 10 µM.

On to `C[C@H](Nc1ncc(F)c(N[C@@H](C)[C@H](O)c2ccccc2)n1)[C@H](O)c1ccccc1` [Compound R925767], for which the 50% inhibitory concentration (IC50) is greater than 10 µM.

Regarding `CNC(=O)COc1cc(Nc2ncc(F)c(Nc3ccc(C)c(O)c3)n2)ccc1C` [Compound R926759], the concentration for half-maximal inhibition (IC50) is 1.71 µM.

`CNC(=O)Cn1ncc2ccc(Nc3ncc(F)c(Nc4ccc5c(c4)OCCO5)n3)cc21` [Compound R935212] displayed a half-inhibitory concentration (IC50) of 4.68 µM.

Consider `NC(=O)COc1ccc(Nc2ncc(F)c(Nc3cccc(O)c3)n2)cc1` [Compound R945064], for which the IC50 was determined as 4.68 µM.

Molecule `CCOC(=O)COc1cccc(Nc2ncc(F)c(Nc3ccc4c(c3)NCCO4)n2)c1` [Compound R909242] came in with an IC50 of 3.8 µM.

`CNC(=O)COc1cccc(Nc2ncc(F)c(Nc3cc(OC)c(Cl)cc3OC)n2)c1` [Compound R926859] yielded an IC50 greater than 10 µM.

Consider `Oc1cccc(Nc2ncc(F)c(Nc3cccc(O)c3)n2)c1` [Compound R926461], for which the IC50 came to 3.39 µM.

The molecule `CNC(=O)COc1cccc(Nc2ncc(F)c(Nc3ccc(OC(F)(F)F)cc3)n2)c1` [Compound R926879] displayed an IC50 of 2.55 µM.

On to `COc1cc(C(=O)NS(=O)(=O)c2ccccc2C)ccc1Cn1ncc2cc(Nc3ncc(F)c(Nc4cccc(O)c4)n3)ccc21` [Compound R935340], for which the IC50 is greater than 10 µM.

In the case of `COc1ccc(Nc2nc(NC3CCN(Cc4ccccc4)CC3)ncc2F)cc1OC` [Compound R940263], half-maximal inhibition (IC50) required 10.1 µM.

On to `CNC(=O)COc1cccc(Nc2ncc(F)c(Nc3ccc4ncccc4c3)n2)c1` [Compound R926883], for which the 50% inhibitory concentration (IC50) is greater than 10 µM.

The test is the same for the next values; noted with them: Homo sapiens.
`Nc1cc(Nc2ncc(F)c(Nc3ccc([N+](=O)[O-])c(N)c3)n2)ccc1[N+](=O)[O-]` [Compound R950135]: the concentration for half-maximal inhibition (IC50) was greater than 10 µM.

Regarding `O=[N+]([O-])c1ccc(O)c(Nc2ccnc(Nc3cc([N+](=O)[O-])ccc3O)n2)c1` [Compound R950155], the IC50 is greater than 10 µM.

Staying with this test, now noted: Homo sapiens, Jurkat.
Regarding `COC(=O)c1cc(Nc2ncc(F)c(Nc3ccc(O)c(C(=O)OC)c3)n2)ccc1O` [Compound R945043], the IC50 was greater than 10 µM.

In turn, `CN1C(=O)COc2cc(Nc3nc(Nc4cccc(O)c4)ncc3F)ccc21` [Compound R909264] had an IC50 of 3.24 µM.

Consider `CCOC(=O)c1nc(Nc2ccc3c(c2)OCCO3)nc(Nc2ccc3c(c2)OCCO3)c1[N+](=O)[O-]` [Compound R925852], for which the concentration for half-maximal inhibition (IC50) is greater than 10 µM.

In turn, `O=C(NCCO)c1cc2cc(Nc3ncc(F)c(Nc4ccc5c(c4)OCCO5)n3)ccc2o1` [Compound R926498] registered a 50% inhibitory concentration (IC50) of 5.73 µM.

For `COC(=O)C(CC(C)C)Nc1ncc(C#N)c(NC(CC(C)C)C(=O)OC)n1` (stereo not drawn) [Compound R925815], the IC50 was greater than 10 µM.

On to `Nc1cc(Nc2ncc(F)c(Nc3ccc(F)c(N)c3)n2)ccc1F` [Compound R950159], for which the IC50 is 8.45 µM.

Molecule `Oc1ccc(CCNc2ncc(Br)c(NCCc3ccc(O)cc3)n2)cc1` [Compound R925792] gave a concentration for half-maximal inhibition (IC50) of 8.65 µM.

In turn, `Fc1cnc(Nc2ccc(C(F)(F)F)cc2)nc1Nc1ccc(C(F)(F)F)cc1` [Compound R926016] had an IC50 greater than 10 µM.

In the case of `COC(=O)c1cc2cc(Nc3ncc(F)c(Nc4cccc(C(C)(C)C)c4)n3)ccc2o1` [Compound R940281], the IC50 is greater than 10 µM.

As to `CCc1ccc(Nc2ncc(F)c(Nc3ccc(CC)cc3)n2)cc1` [Compound R926234], the half-inhibitory concentration (IC50) is greater than 10 µM.

For `Oc1cccc(Nc2nc(Nc3ccc4cc[nH]c4c3)ncc2F)c1` [Compound R926751], the IC50 came out at 5.59 µM.

Turning to `Fc1cnc(NCCCN2CCN(Cc3c(F)cccc3Cl)CC2)nc1Nc1ccc2c(c1)OCCO2` [Compound R926717], the IC50 was 3.75 µM.

`COC(=O)c1cc(Nc2ncc(F)c(Nc3cccc(O)c3)n2)cc(C(F)(F)F)c1` [Compound R926863]: the concentration for half-maximal inhibition (IC50) was greater than 10 µM.

The molecule `c1cc2c(cc1Nc1cc(Nc3ccc4c(c3)OCCO4)nc(Nc3ccc4c(c3)OCCO4)n1)OCCO2` [Compound R926516] returned an IC50 of 17.8 µM.

As for `COc1ccc(Nc2ncc(Br)c(Nc3ccc(OC)c(-c4ccccc4)c3)n2)cc1-c1ccccc1` [Compound R925802], the IC50 was greater than 10 µM.

As to `Oc1cccc(Nc2ncc(-c3ccc4c(c3)OCO4)c(Nc3cccc(O)c3)n2)c1` [Compound R925788], the IC50 is 16.9 µM.

In turn, `Nc1c(F)ccc(Nc2ncc(F)c(Nc3ccc(F)c(N)c3F)n2)c1F` [Compound R950138] returned an IC50 greater than 10 µM.

`Fc1cnc(NCc2ccco2)nc1NCc1ccco1` [Compound R925769] yielded a 50% inhibitory concentration (IC50) greater than 10 µM.

In turn, `COC(=O)c1ccc(Nc2ncc(F)c(Nc3ccc(C(=O)OC)c(OC)c3)n2)cc1OC` [Compound R945065] yielded an IC50 of 14.4 µM.

With `Oc1cccc(Nc2ncc(F)c(NC3c4ccccc4-c4ccccc43)n2)c1` [Compound R935020], the IC50 was greater than 10 µM.

`CCOc1ccc(Nc2ncc(F)c(Nc3ccc(OCC)cc3)n2)cc1` [Compound R070790, N2,N4-bis(4-ethoxyphenyl)-5-fluoro-2,4-pyrimidinediamine]: the 50% inhibitory concentration (IC50) was greater than 10 µM.

With `CN1C(=O)COc2ccc(Nc3nc(Nc4cccc(O)c4)ncc3F)cc21` [Compound R908709], the half-inhibitory concentration (IC50) was determined as 3.39 µM.

Take `Fc1cccc(Nc2ncc(F)c(Nc3ccc4c(c3)OCCO4)n2)c1` [Compound R926221]: the IC50 was greater than 10 µM.
